In patent publication US20030118577A1, “Use of analogues of superoxide dismutase for treating hepatocellular insufficiencies” (priority 2000, published 2003):

Legend:
[1] = tested on: hepatocellular insufficiency induced by chronic intoxication with DMNA; experiment: Chronic intoxication with DMNA, histological examination; format: in vivo, mice
Description: The inventors also investigated the effects of MnSOD mimetics on hepatocellular insufficiency of toxic origin which can be induced in particular by alcohol, using an experimental model of intoxication with dimethylnitrosamine (DMNA) administered at the dose of 10 mg/kg in mice. This model is similar to intoxication with alcohol because the lesions induced by DMNA and alcohol are identical.
Intraperitoneal administration of 10 mg/kg/day of DMNA three times per week induces, in dogs and rodents, centrolobular and periportal lesions comprising fibrosis at the 4th week, and cirrhosis at the 13th week [RISTELLI et al., J. Biochem., 158, 361-367, (1976); MADDEN et al., Surgery, 68, 260-267, (1970)].

[2] = known; cited from earlier work
[3] = tested on: ischemic lesions of hepatic grafts; experiment: Transaminase release from removed mouse livers in Belzer's preservation fluid; conditions: Belzer's fluid with MnTBAP 10 μg/ml; 4° C.
Description: Ischemia of hepatic grafts after their removal and during their preservation at 4° C. causes hepatocytic lesions.
The intensity of the lesions may be evaluated on the concentration of transaminases in the preservation fluid.
Mouse livers were surgically removed, rinsed with Belzer's preservation fluid supplemented or otherwise with MnTBAP at the concentration of 10 μg/ml. The transaminases were then assayed in the fluid at various times after removal of the organ.

[4] = tested on: acute hepatic insufficiency induced by acetaminophen; experiment: Survival of mice after intraperitoneal acetaminophen (acute hepatic insufficiency); conditions: for rate of survival: 24 hours after acetaminophen 1000 mg/kg ip, FIG. 1
Description: The intraperitoneal injection of acetaminophen into mice induces a severe hepatotoxicity, the degree of which may be evaluated by the survival of the animals, measuring transaminase activities, and macroscopic and microscopic examination of the livers.
The acetaminophen in solution at 100 mg/ml in PBS at pH 7.4 is administered by the intraperitoneal route.
In a first series of experiments, a group of mice received a dose of 1000 mg/kg of acetaminophen; a second group received a dose of 1000 mg/kg of acetaminophen and a dose of 10 mg/kg of MnTBAP administered either 2 h before the acetaminophen or 6 h after; a control group received either MnTBAP alone (10 mg/kg), or PBS alone.
The survival of the animals is monitored for 24 hours after the administration of acetaminophen.
The effect of N-acetyl-L-cysteine (NAC), of CuDIPS, and of MnTBAP on the survival of mice after intraperitoneal injection of 1000 mg/kg of acetaminophen (APAP) was compared.
MnTBAP, NAC, or CuDIPS are administered in the form of a bolus, preventively, 2 hours before (P) or, curatively, 6 hours after (C) the acetaminophen.
The survival of the animals is monitored for 24 hours after administration of acetaminophen.

O=C(O)c1ccc(-c2c3nc(c(-c4ccc(C(=O)O)cc4)c4ccc([n-]4)c(-c4ccc(C(=O)O)cc4)c4nc(c(-c5ccc(C(=O)O)cc5)c5ccc2[n-]5)C=C4)C=C3)cc1.[Mn+3] [MnTBAP, Mn(III) tetrakis(5,10,15,20-benzoic acid)porphyrin]
appearance of hepatic lesions on histological sections ([1]; DMNA 10 mg/kg in mice, different intoxication times): delays the appearance of hepatic lesions | constitution of fibrosis on histological examination ([1]; DMNA 10 mg/kg/day ip three times per week, MnTBAP 10 mg/kg ip 24 hours after each DMNA): prevents the constitution of objectively viable fibrosis | catalase activity [2]: known to possess a catalase activity | release of transaminases by the liver into preservation fluid [3]: reduction in the release of transaminases | rate of survival ([4]; MnTBAP 10 mg/kg ip 2 h before acetaminophen): ~60% | rate of survival ([4]; MnTBAP 10 mg/kg ip 6 h after acetaminophen): greater than 40% | effect on survival rate, administered preventively ([4]; APAP 1000 mg/kg, 2 hours before (P)): increases the survival rate in a manner at least equal to NAC | activity on survival, curative versus preventive administration ([4]; APAP 1000 mg/kg, 6 hours after (C) or 2 hours before (P)): active when it is administered curatively | activity on survival by the oral route ([4]; APAP 1000 mg/kg, per os): active | percentage of surviving animals ([4]; Group II: MnTBAP 10 mg/kg alone, no APAP, time 0 h): 100% | percentage of surviving animals ([4]; Group II: MnTBAP 10 mg/kg alone, no APAP, time 6 h): 100% | percentage of surviving animals ([4]; Group II: MnTBAP 10 mg/kg alone, no APAP, time 8 h): 100% | percentage of surviving animals ([4]; Group II: MnTBAP 10 mg/kg alone, no APAP, time 9 h): 100% | percentage of surviving animals ([4]; Group II: MnTBAP 10 mg/kg alone, no APAP, time 10 h): 100% | percentage of surviving animals ([4]; Group II: MnTBAP 10 mg/kg alone, no APAP, time 11 h): 100% | percentage of surviving animals ([4]; Group II: MnTBAP 10 mg/kg alone, no APAP, time 12 h): 100% | percentage of surviving animals ([4]; Group II: MnTBAP 10 mg/kg alone, no APAP, time 13 h): 100% | percentage of surviving animals ([4]; Group II: MnTBAP 10 mg/kg alone, no APAP, time 14 h): 100% | percentage of surviving animals ([4]; Group II: MnTBAP 10 mg/kg alone, no APAP, time 15 h): 100% | percentage of surviving animals ([4]; Group II: MnTBAP 10 mg/kg alone, no APAP, time 16 h): 100% | percentage of surviving animals ([4]; Group II: MnTBAP 10 mg/kg alone, no APAP, time 17 h): 100% | percentage of surviving animals ([4]; Group II: MnTBAP 10 mg/kg alone, no APAP, time 18 h): 100% | percentage of surviving animals ([4]; Group II: MnTBAP 10 mg/kg alone, no APAP, time 20 h): 100% | percentage of surviving animals ([4]; Group II: MnTBAP 10 mg/kg alone, no APAP, time 22 h): 100% | percentage of surviving animals ([4]; Group II: MnTBAP 10 mg/kg alone, no APAP, time 24 h): 100% | percentage of surviving animals ([4]; Group IX: APAP 1000 mg/kg, MnTBAP 50 mg/kg (P) per os, time 0 h): 100% | percentage of surviving animals ([4]; Group IX: APAP 1000 mg/kg, MnTBAP 50 mg/kg (P) per os, time 6 h): 100% | percentage of surviving animals ([4]; Group IX: APAP 1000 mg/kg, MnTBAP 50 mg/kg (P) per os, time 8 h): 88.8% | percentage of surviving animals ([4]; Group IX: APAP 1000 mg/kg, MnTBAP 50 mg/kg (P) per os, time 9 h): 88.8% | percentage of surviving animals ([4]; Group IX: APAP 1000 mg/kg, MnTBAP 50 mg/kg (P) per os, time 10 h): 88.8% | percentage of surviving animals ([4]; Group IX: APAP 1000 mg/kg, MnTBAP 50 mg/kg (P) per os, time 11 h): 88.8% | percentage of surviving animals ([4]; Group IX: APAP 1000 mg/kg, MnTBAP 50 mg/kg (P) per os, time 12 h): 88.8% | percentage of surviving animals ([4]; Group IX: APAP 1000 mg/kg, MnTBAP 50 mg/kg (P) per os, time 13 h): 88.8% | percentage of surviving animals ([4]; Group IX: APAP 1000 mg/kg, MnTBAP 50 mg/kg (P) per os, time 14 h): 88.8% | percentage of surviving animals ([4]; Group IX: APAP 1000 mg/kg, MnTBAP 50 mg/kg (P) per os, time 15 h): 88.8% | percentage of surviving animals ([4]; Group IX: APAP 1000 mg/kg, MnTBAP 50 mg/kg (P) per os, time 16 h): 88.8% | percentage of surviving animals ([4]; Group IX: APAP 1000 mg/kg, MnTBAP 50 mg/kg (P) per os, time 17 h): 77.7% | percentage of surviving animals ([4]; Group IX: APAP 1000 mg/kg, MnTBAP 50 mg/kg (P) per os, time 18 h): 66.6% | percentage of surviving animals ([4]; Group IX: APAP 1000 mg/kg, MnTBAP 50 mg/kg (P) per os, time 20 h): 66.6% | percentage of surviving animals ([4]; Group IX: APAP 1000 mg/kg, MnTBAP 50 mg/kg (P) per os, time 22 h): 66.6% | percentage of surviving animals ([4]; Group IX: APAP 1000 mg/kg, MnTBAP 50 mg/kg (P) per os, time 24 h): 66.6% | percentage of surviving animals ([4]; Group V: APAP 1000 mg/kg, MnTBAP 10 mg/kg (P), time 0 h): 100% | percentage of surviving animals ([4]; Group V: APAP 1000 mg/kg, MnTBAP 10 mg/kg (P), time 6 h): 100% | percentage of surviving animals ([4]; Group V: APAP 1000 mg/kg, MnTBAP 10 mg/kg (P), time 8 h): 100% | percentage of surviving animals ([4]; Group V: APAP 1000 mg/kg, MnTBAP 10 mg/kg (P), time 9 h): 91.4% | percentage of surviving animals ([4]; Group V: APAP 1000 mg/kg, MnTBAP 10 mg/kg (P), time 10 h): 88.6% | percentage of surviving animals ([4]; Group V: APAP 1000 mg/kg, MnTBAP 10 mg/kg (P), time 11 h): 77.1% | percentage of surviving animals ([4]; Group V: APAP 1000 mg/kg, MnTBAP 10 mg/kg (P), time 12 h): 74.3% | percentage of surviving animals ([4]; Group V: APAP 1000 mg/kg, MnTBAP 10 mg/kg (P), time 13 h): 74.3% | percentage of surviving animals ([4]; Group V: APAP 1000 mg/kg, MnTBAP 10 mg/kg (P), time 14 h): 71.4% | percentage of surviving animals ([4]; Group V: APAP 1000 mg/kg, MnTBAP 10 mg/kg (P), time 15 h): 71.4% | percentage of surviving animals ([4]; Group V: APAP 1000 mg/kg, MnTBAP 10 mg/kg (P), time 16 h): 68.6% | percentage of surviving animals ([4]; Group V: APAP 1000 mg/kg, MnTBAP 10 mg/kg (P), time 17 h): 68.6% | percentage of surviving animals ([4]; Group V: APAP 1000 mg/kg, MnTBAP 10 mg/kg (P), time 18 h): 65.7% | percentage of surviving animals ([4]; Group V: APAP 1000 mg/kg, MnTBAP 10 mg/kg (P), time 20 h): 65.7%
